Data taken from publication PMC4078735 (Journal of biomolecular screening, 2013).
Structures can show the parent of a compound that is named as a salt.

Tests used:
[1] = PAMPA
[2] = PAMPA; for Permeability (Log Pe, cm/sec) Porcine polar brain lipid (PBL): pig, pH 7.4
in vitro [3] = details: PAMPA, pH 7.4
[4] = PAMPA; for Permeability (Log Pe, cm/sec) Microvessel lipid + cholesterol (MVLC): pH 7.4
in vitro [5] = details: PAMPA, pH 7.4; remark: listed apart in the source
[6] = PAMPA; remark: listed apart in the source

COc1ccc2c3c1O[C@H]1C(=O)CC[C@@]4(O)[C@@H](C2)N(C)CC[C@]314 [Oxycodone, oxycodone]
Ability to cross the dodecane barrier [1]: unable to cross the barrier

CN1CC[C@]23c4c5ccc(O)c4O[C@H]2[C@@H](O)CC[C@H]3[C@H]1C5 [Dihydromorphine, dihydromorphine]
Permeability (Log Pe, cm/sec) Porcine polar brain lipid (PBL) [2]: −1.76 ± 0.09 cm/sec | Ability to cross the dodecane barrier [1]: unable to cross the barrier | Papp (in vitro [3]): 1510 ×10⁻⁶ cm/s

CN(C)C[C@H]1CCCC[C@]1(O)c1cccc(O)c1 [O-desmethyl tramadol, O-desmethyltramadol]
Permeability (Log Pe, cm/sec) Porcine polar brain lipid (PBL) [2]: −0.97 ± 0.04 cm/sec

CCC(=O)C(CC(C)N(C)C)(c1ccccc1)c1ccccc1 (racemic) [Methadone, (±) methadone HCl]
Permeability (Log Pe, cm/sec) Porcine polar brain lipid (PBL) [2]: −0.37 ± 0.07 cm/sec | Permeability (Log Pe, cm/sec) Dodecane ([1]; pH 7.4): −1.54 ± 0.05 cm/sec

CN(C)C(=O)C(CCN1CCC(O)(c2ccc(Cl)cc2)CC1)(c1ccccc1)c1ccccc1 [Loperamide, loperamide]
Permeability (Log Pe, cm/sec) Microvessel lipid + cholesterol (MVLC) [4]: −1.97 ± 0.08 cm/sec

Cn1c(=O)c2c(ncn2C)n(C)c1=O [Caffeine, caffeine]
Papp at 2 h, 2 µM (in vitro [3]): 724 ×10⁻⁶ cm/s

COc1cccc(C2(O)CCCCC2CN(C)C)c1 (centres unmarked) [Tramadol]
Papp (in vitro [5]): 117 ×10⁻⁶ cm/s

CO[C@]12CC[C@@]3(C[C@@H]1[C@](C)(O)C(C)(C)C)[C@H]1Cc4ccc(O[C@@H]5O[C@H](C(=O)O)[C@@H](O)[C@H](O)[C@H]5O)c5c4[C@@]3(CCN1CC1CC1)[C@H]2O5 [Buprenorphine glucuronide, buprenorphine-3-β-D-glucuronide]
Permeability (Log Pe, cm/sec) Microvessel lipid + cholesterol (MVLC) [4]: −3.27 ± 0.21 cm/sec

Cc1nnc2n1-c1ccc(Cl)cc1C(c1ccccc1)=NC2 [Alprazolam, alprazolam]
Permeability in the PBL model (in words) [2]: highly permeability | Permeability in the MVL model (in words) [6]: highly permeability | Permeability in the MVLC model (in words) [4]: highly permeability
